Reference: PMC12037410, “Pharmacological targeting of BMAL1 modulates circadian and immune pathways” (Nature Chemical Biology, 2025)

What follows are compounds tested against BMAL1 (Homo sapiens, UniProt O00327). Details: dTmB; binder.
Parameters: PASB domain (residues 338–449); Protein thermal shift (PTS) fragment screen on recombinant human BMAL1(PASB), shift of melting temperature

Chain of BMAL1 (O00327 338-449): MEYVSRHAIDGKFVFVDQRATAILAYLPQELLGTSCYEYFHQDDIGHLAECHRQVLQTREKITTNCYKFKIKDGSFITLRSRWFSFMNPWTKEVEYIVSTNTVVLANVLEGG

Structure (SMILES) | Bmal1(PASB) dTmB [°C]
O=C(c1ccccc1)c1ccccc1 [Prestw-Frag-1860, Compound 423] | -0.99
CS(=O)(=O)Nc1ccccc1Oc1ccccc1 [Prestw-Frag-1861, Compound 432] | -1.83
COC(=O)C(O)(c1ccccc1)C1CCCCC1 (stereo not drawn) [Prestw-Frag-1867, Compound 446] | -1.54
c1ccc(CC2CCNCC2)cc1 [Prestw-Frag-1868, Compound 296] | -0.76
O=C1NCN(c2ccccc2)C12CCNCC2 [Prestw-Frag-1869, Compound 339] | -0.72
Nc1ccnc2ccccc12 [Prestw-Frag-1878, Compound 323] | -0.67
CC(=O)c1ccccc1O [Prestw-Frag-1884, Compound 211] | -0.17
COc1ccc(CNCCN(C)C)cc1 [Prestw-Frag-1887, Compound 172] | -0.14
CN(C)Cc1ccc(CSCCN)o1 [Prestw-Frag-1889, Compound 8] | -2.44
Cc1ccc(S(N)(=O)=O)cc1 [Prestw-Frag-1894, Compound 198] | -0.38
NS(=O)(=O)c1ccccc1 [Prestw-Frag-1895, Compound 148] | -0.29
COc1ccc2nc(N)sc2c1 [Prestw-Frag-1898, Compound 305] | 1.10
O=C1Nc2ccccc2Nc2ccccc21 [Prestw-Frag-1904, Compound 439] | 0.05
CCCOc1ccccc1C(=N)N [Prestw-Frag-1910, Compound 398] | -0.43
Cc1ccccc1-c1ccccc1CO [Prestw-Frag-1923, Compound 451] | -1.24
OC(c1ccc(F)cc1)c1ccc(F)cc1 [Prestw-Frag-1924, Compound 461] | -1.89
NCCOC(c1ccc(F)cc1)c1ccc(F)cc1 [Prestw-Frag-1925, Compound 448] | -1.45
CC(C)(C)NCC(O)c1ccccc1 (stereo not drawn) [Prestw-Frag-1929, Compound 213] | -0.34
OCc1cc(O)cc(O)c1 [Prestw-Frag-1935, Compound 76] | -0.85
CC(N)C(=O)c1ccccc1 (stereo not drawn) [Prestw-Frag-1941, Compound 223] | -0.18
OCCCN1CCN(c2ccccc2)CC1 [Prestw-Frag-1944, Compound 178] | -0.31
OCCN1CCN(c2ccccc2)CC1 [Prestw-Frag-1945, Compound 144] | -0.42

Structure (SMILES) | Bmal1(PASB) dTmB [°C]
O=C(CCN1CCCCC1)c1ccccc1 [Prestw-Frag-1953, Compound 479] | -3.22
O=C(Cc1ccccc1)NO [Prestw-Frag-1961, Compound 252] | -0.30
O=C(O)c1ccc(Oc2ccccc2)cc1 [Prestw-Frag-1968, Compound 155] | -0.89
NC(=O)Cc1ccccn1 [Prestw-Frag-1971, Compound 173] | -0.17
NS(=O)(=O)c1ccc(Cl)cc1 [Prestw-Frag-1977, Compound 122] | -0.58
CCN(CC)CCNc1ccccc1 [Prestw-Frag-1993, Compound 214] | -0.30
Cc1cccc(C)c1NC(=O)CN1CCNCC1 [Prestw-Frag-1996, Compound 391] | -0.66
NCCc1cnc[nH]1 [Prestw-Frag-1999, Compound 330] | -0.23
Cc1c[nH]c(=O)[nH]c1=O [Prestw-Frag-2017, Compound 255] | -0.13
CNC(=O)c1ccc(Cl)cc1 [Prestw-Frag-2018, Compound 319] | -0.45
Cc1noc(N)c1C [Prestw-Frag-2021, Compound 114] | -0.18
CNS(=O)(=O)c1ccccc1 [Prestw-Frag-2023, Compound 256] | -0.20
CN(C)CCNC(=O)c1ccc(N)cc1 [Prestw-Frag-2031, Compound 430] | -0.84
CC(=O)N1CCN(c2ccc(O)cc2)CC1 [Prestw-Frag-2047, Compound 27] | -2.09
O=C(O)C1(c2ccccc2)CCCC1 [Prestw-Frag-2049, Compound 104] | -0.56
NS(=O)(=O)c1cc(C(=O)O)ccc1Cl [Prestw-Frag-2051, Compound 160] | 0.10
O=C(O)c1ccccc1NCc1ccco1 [Prestw-Frag-2052, Compound 70] | -0.26
NC1CCN(Cc2ccccc2)CC1 [Prestw-Frag-2060, Compound 207] | -0.05
NCCc1ccc(O)cc1 [Prestw-Frag-2070, Compound 299] | -0.26
Nc1cccnn1 [Prestw-Frag-2072, Compound 233] | -0.18
Cc1cc(C2CCCCC2)n(O)c(=O)c1 [Prestw-Frag-2092, Compound 58] | -1.46
CN(C)C(c1ccccc1)c1ccccc1 [Prestw-Frag-2100, Compound 331] | -1.24

Structure (SMILES) | Bmal1(PASB) dTmB [°C]
COc1ccc(C(F)(F)F)cc1 [Prestw-Frag-2108, Compound 203] | -0.12
NC(N)=NCc1cccc(I)c1 [Prestw-Frag-2111, Compound 312] | -0.90
COc1ccc2nc(SC)[nH]c2c1 [Prestw-Frag-2118, Compound 167] | 1.19
NS(=O)(=O)c1ccc(C(=O)O)cc1 [Prestw-Frag-2123, Compound 82] | -0.15
Cc1cc(=O)[nH]c(=S)[nH]1 [Prestw-Frag-2127, Compound 68] | -0.75
NC(=O)c1ccccn1 [Prestw-Frag-2131, Compound 358] | -0.11
Cc1nc2ccccc2[nH]1 [Prestw-Frag-2136, Compound 408] | -0.37
O=C(O)Cc1cccs1 [Prestw-Frag-2140, Compound 161] | -0.19
O=C1OCc2ccccc21 [Prestw-Frag-2144, Compound 404] | -0.23
O=C(CCc1ccccc1)c1ccccc1O [Prestw-Frag-2152, Compound 434] | -0.33
CC(C)NCC(O)c1ccccc1 (stereo not drawn) [Prestw-Frag-2168, Compound 193] | -0.58
O=C1CNS(=O)(=O)c2ccsc21 [Prestw-Frag-2176, Compound 30] | -4.81
Cc1c(C)c2c(c(C)c1O)CCC(C)(C)O2 [Prestw-Frag-2185, Compound 438] | 1.30
COc1cc2c(cc1OC)C(C)NCC2 (stereo not drawn) [Prestw-Frag-2193, Compound 348] | -0.74
CCOc1ccc(N)cc1 [Prestw-Frag-2201, Compound 146] | -0.64
COc1ccc(OC)c(C(C)O)c1 (stereo not drawn) [Prestw-Frag-2208, Compound 283] | -0.43
COc1ccc(CN2CCNCC2)cc1 [Prestw-Frag-2212, Compound 304] | -0.50
c1ccc(CN2CCNCC2)cc1 [Prestw-Frag-2215, Compound 424] | -0.38
O=C(Cc1ccccc1)c1ccccc1 [Prestw-Frag-2219, Compound 440] | -0.71
OCC(O)COc1ccc(Cl)cc1 (stereo not drawn) [Prestw-Frag-2229, Compound 393] | 0.07
CS(=O)(=O)c1ccc(CO)cc1 [Prestw-Frag-2234, Compound 220] | -0.40
CC(O)(c1ccccc1)c1ccccc1 [Prestw-Frag-2235, Compound 444] | -1.59

Structure (SMILES) | Bmal1(PASB) dTmB [°C]
CC(O)(c1ccccc1)c1ccccn1 (stereo not drawn) [Prestw-Frag-2237, Compound 355] | -0.76
OC(c1ccccc1)c1ccccn1 (stereo not drawn) [Prestw-Frag-2238, Compound 262] | -0.66
CC(=O)c1ccc2c(c1)Nc1ccccc1S2 [Prestw-Frag-2239, Compound 65] | 0.31
CCCCOc1cc(C(=O)OC)ccc1N [Prestw-Frag-2253, Compound 206] | -0.90
Nc1nc2ccccc2o1 [Prestw-Frag-2256, Compound 309] | -0.33
NC(=O)c1[nH]cnc1N [Prestw-Frag-2268, Compound 14] | -0.68
c1ccc2c(c1)OCO2 [Prestw-Frag-2299, Compound 175] | -0.52
OCc1ccncc1 [Prestw-Frag-2303, Compound 179] | -0.35
OCc1cccnc1 [Prestw-Frag-2304, Compound 272] | -0.06
Cc1cccc(C)c1N [Prestw-Frag-2313, Compound 365] | -0.18
COc1cc(NS(=O)(=O)c2ccc(N)cc2)ncn1 [Prestw-Frag-2337, Compound 376] | 0.09
COC(=O)c1ccc(N)cc1 [Prestw-Frag-2346, Compound 380] | -0.11
N=C(N)CSCc1ccccc1 [Prestw-Frag-2348, Compound 201] | 0.25
O=C(O)c1cc(=O)c2ccccc2o1 [Prestw-Frag-2352, Compound 352] | -0.25
Clc1ccc(CNc2ccccn2)cc1 [Prestw-Frag-2356, Compound 344] | -0.84
O=C1c2ccccc2CN1c1ccccc1 [Prestw-Frag-2360, Compound 56] | -0.56
NC(=O)C(c1ccccc1)c1ccccc1 [Prestw-Frag-2366, Compound 415] | -0.76
S=c1[nH]cc[nH]1 [Prestw-Frag-2373, Compound 253] | -1.25
O=C(O)CCC(=O)Nc1ccccc1 [Prestw-Frag-2383, Compound 124] | -0.33
O=C(C1COc2ccccc2O1)N1CCNCC1 (stereo not drawn) [Prestw-Frag-2389, Compound 381] | -0.24
N#Cc1ccc[nH]c1=O [Prestw-Frag-2408, Compound 346] | -0.07
